Like-named read-outs stand apart in the source and are kept apart here.

These results are taken from patent US20230303613A1, “3′3′ CYCLIC DINUCLEOTIDES WITH AN ALKENYLENE” (Institute of Organic Chemistry and Biochemistry AS CR, v.v.i, priority 2020, published 2023).

Type in all cases: cell-based
The target in experiment [1] is T1, WT STING (Homo sapiens, UniProt Q86WV6, H232R). In words: Digitonin assay using 293T wtSTING-FL reporter cells. To be noted: 293T wtSTING-FL cells; 30 minutes in Digitonin buffer, then 5 hours; ISRE firefly luciferase reporter. The source says: (§1) Two complementary oligonucleotides of the sequence […] […] […] […] […] The oligonucleotides were mixed in equal molar amounts, hybridized, and cleaved by restriction endonucleases HindIII (cat. #. R0104S, NEB, Ipswich, USA) and BglII (cat. # R0144S, NEB, Ipswich, USA). Ultimately, they were ligated into plasmid pGL4.27 (cat. # E6651, Promega, Madison, USA) linearized with the same enzymes. As result the sequence with four ISRE sites was placed upstream of the minimum promoter of firefly luciferase reporter gene.
T1 sequence (Q86WV6 whole entry H232R): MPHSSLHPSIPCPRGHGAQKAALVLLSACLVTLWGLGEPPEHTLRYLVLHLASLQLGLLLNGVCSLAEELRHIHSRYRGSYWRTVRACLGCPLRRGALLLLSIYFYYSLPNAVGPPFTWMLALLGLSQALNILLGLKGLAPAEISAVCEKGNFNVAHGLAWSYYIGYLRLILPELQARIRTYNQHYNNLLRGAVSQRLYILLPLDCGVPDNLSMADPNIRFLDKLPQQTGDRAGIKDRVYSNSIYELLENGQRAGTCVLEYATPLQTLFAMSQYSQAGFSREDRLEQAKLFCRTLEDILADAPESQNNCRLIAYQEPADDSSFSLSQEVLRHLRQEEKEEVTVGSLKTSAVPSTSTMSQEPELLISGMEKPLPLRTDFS
(§2) After 5 minutes incubation at room temperature (RT), 250 µL of the mixture was added dropwise to the cells in one well. Cells were incubated 36 hours at 37° C. with 5% CO2, and then detached with 0.05% Trypsin and 0.22 g/L EDTA (both cat. # L0941, Biowest, Riverside, USA).
(§3) Transfected cells were seeded onto poly-D-lysine coated six well plates at density 50,000 cells per 1 cm^2 in DMEM medium with high glucose containing 10% heat inactivated FBS, 30 µg/mL blasticidin (cat. # ant-bl-05, InvivoGen, San Diego, USA), 0.06 mg/ml Penicillin G and 0.1 mg/ml Streptomycin Sulfate (both cat. #. L0018, Biowest, Riverside, USA). The medium was replenished every 3 - 4 days until visible colonies of cells resistant to blasticidin were formed.
(§4) Blasticidin resistant cells stably expressing WT STING were further transfected with […] plasmid following the same procedure as described above. […] Homogeneous culture of stably double transfected cells was prepared by limiting dilution of cells in 96 well plates and wells with cells were selected that originated from a single cell.
The medium was removed next day and three fold serial dilutions of compounds in Digitonin buffer containing 50 mmol.l^-1 HEPES (cat. # H3375, Sigma Aldrich, Czech Republic) pH 7.0, 100 mmol.1^-1 KCl, 3 mmol.l^-1 MgCl2, 0.1 mmol.l^-1 DTT (cat. # D0632, Sigma Aldrich, Czech Republic), 85 mmol.1^-1 Sucrose (cat. # S7903, Sigma Aldrich, Czech Republic), 0.2% BSA (cat. # A2153, Sigma Aldrich, Czech Republic), 1 mmol.l^-1 ATP (cat. # A1852, Sigma Aldrich, Czech Republic), 0.1 mmol.1^-1 GTP (cat. # G8877, Sigma Aldrich, Czech Republic), and 10 µg/mL Digitonin A (cat. # D141, Sigma Aldrich, Czech Republic) were added to the cells. The buffer was removed after 30 minutes incubation at 37° C. with 5% CO2, the cells were washed once with 100 µl of cultivation medium, and 100 µl of medium was added to each well. The plates with cells were incubated for 5 hours at 37° C. with 5% CO2, 50µl of the medium was removed and 30 µl of ONE-Glo^Tm Luciferase Assay System reagent (cat. # E6120, Promega, Madison, USA) was added to each well. Luminescence was read on Synergy H1 (Biotek, Winooski, USA).
In general terms: A reporter such as luciferase makes a cellular process visible.

The subject of experiment [2] is peripheral blood mononuclear cell (PBMC). In words: Peripheral blood mononuclear cell assay. To be noted: 1h with compound, washed, 15 hour incubation. The procedure:
Selected compounds were tested in an in vitro peripheral blood mononuclear cell (PBMC) assay. Freshly isolated PBMCs were seeded into U-shaped shaped 96-well plates at desity 500,000 cells per well in 50 µl of RPMI 1640 medium supplemented with 10% heat inactivated FBS. Serially dilluted tested compounds were added to wells in 50 µl of cultivation medium and cell were incubated with compounds for 1h at 37° C. with 5% CO2. Plates with cells were then spun 500 g for 5 minutes and medium was removed. Cells were washed twice with the cell culture medium by the use of centrifugation and gently resuspended in 100 µl medium without compounds. After 15 hour incubation at 37° C. with 5% CO2, the cell culture medium was collected and the levels of interferon-alpha (INF-α), interferon-gamma (INF-γ) and tumor necrosis factor-alpha (TNF-α) were determined with ProcartaPlex Assays (ThermoFisher, Waltham, USA) and MAGPIX System (Merck KGaA, Darmstadt, Germany).

The target of experiment [3] is T1, WT STING. The experiment is described as follows: 293T WT STING standard reporter assay. To be noted: 293T wtSTING-FL cells; 7 hours with compound, no digitonin; ISRE firefly luciferase reporter.
Source text: as §1, §2, §3, §4
The medium was removed next day and three-fold serial dilutions of compounds in 100 µl medium were added to the cells. The plates with cells were incubated for 7 hours at 37° C. with 5% CO2. After 50 µl of the medium was removed, 30 µl of ONE-Glo^Tm Luciferase Assay System reagent (cat. # E6120, Promega, Madison, USA) was added to each well and luminescence was read on Synergy H1 (Biotek, Winooski, USA).

Where [4] appears, read: PBMC, IFN-α level in medium, read-out: PBMC EC50 IFN-α.
Where [5] appears, read: PBMC, IFN-γ level in medium, read-out: PBMC EC50 IFN-γ.
[6] abbreviates: PBMC, TNF-α level in medium, read-out: PBMC EC50 TNF-α.
The mark [7] stands for this setting: IFN-α level in medium, read-out: PBMC EC50 IFN-α.
The mark [8] stands for this setting: TNF-α level in medium, read-out: PBMC EC50 TNF-α.

A word on the EC50: it is the concentration giving half of the maximal effect. For `Nc1ncnc2c1ncn2[C@@H]1O[C@@H]2/C=C/P(=O)(O)O[C@H]3C[C@H](n4cnc5c(N)ncnc54)O[C@@H]3COP(=O)(O)O[C@H]2[C@H]1F` [Compound 60, (1R,6R,8R,10S,13E,15R,17R,18R)-8,17-bis(6-amino-9H-purin-9-yl)-18-fluoro-3,12-dihydroxy-2,4,7,11,16-pentaoxa-3λ^5,12λ^5-diphosphatricyclo[13.3.0.0^6,^10]octadec-13-ene-3,12-dione], the EC50 was 280 nM at WT STING [1]; over 500000 nM in experiment [2] (setting [4]); 164000 nM in experiment [2] (setting [5]); 100000 nM in experiment [2] (setting [6]); 71800 nM at WT STING [3].
As to `CCCCCCCCCCCC(=O)OCOP1(=O)/C=C/[C@H]2O[C@@H](n3cnc4c(N)ncnc43)[C@H](F)[C@@H]2OP(=O)(OCOC(=O)CCCCCCCCCCC)OC[C@H]2O[C@@H](n3cnc4c(N)ncnc43)[C@H](F)[C@@H]2O1` (single isomer, unassigned) [Compound 85a], the EC50 in experiment [2] (setting [4]) is 20 nM; in experiment [2] (setting [5]), 10 nM; in experiment [2] (setting [6]) it was 20 nM; on WT STING [3], 0.4 nM.
For “{[(1R,6R,8R,9R,10R,13E,15R,17R,18R)-8,17-bis(6-amino-9H-purin-9-yl)-9,18-difluoro-3,12-dioxo-3-({[(propan-2-yloxy)carbonyl]oxy}methoxy)-2,4,7,11,16-pentaoxa-3λ^5,12λ^5- diphosphatricyclo[13.3.0.0^6,^10]octadec-13-en-12-yl]oxy}methyl propan-2-yl carbonate [Compound 81c]”, the 50% effective concentration (EC50) stood at 600 nM in experiment [2] (setting [7]); 1300 nM in experiment [2] (IFN-γ level in medium, read-out: PBMC EC50 IFN-γ); 250 nM in experiment [2] (setting [8]); 122 nM on WT STING [3].
Regarding `CC(C)(C)C(=O)OCOP1(=O)/C=C/[C@H]2O[C@@H](n3cnc4c(N)ncnc43)[C@H](F)[C@@H]2OP(=O)(OCOC(=O)C(C)(C)C)OC[C@H]2O[C@@H](n3cnc4c(N)ncnc43)C[C@@H]2O1` (stereo partly drawn) [Compound 86, {[(1R,6R,8R,10S,13E,15R,17R,18R)-8,17-bis(6-amino-9H-purin-9-yl)-3-{[(2,2-dimethylpropanoyl)oxy]methoxy}-18-fluoro-3,12-dioxo-2,4,7,11,16-pentaoxa-3λ^5,12λ^5-diphosphatricyclo[13.3.0.0^6,^10]octadec-13-en-12-yl]oxy}methyl 2,2-dimethylpropanoate], the EC50 worked out at 600 nM in experiment [2] (setting [4]), 1600 nM in experiment [2] (setting [5]), 800 nM in experiment [2] (setting [6]) and 10 nM on WT STING [3].
On to `Nc1nc2c(ncn2[C@@H]2O[C@@H]3COP(=O)(O)O[C@H]4C[C@H](n5cnc6c(N)ncnc65)O[C@@H]4/C=C/P(=O)(O)O[C@H]3[C@H]2F)c(=O)[nH]1` [Compound 59, (1S,6R,8R,9R,10R,13E,15R,17R)-8-(2-amino-6-oxo-6,9-dihydro-1H-purin-9-yl)-17-(6-amino-9H-purin-9-yl)-9-fluoro-3,12-dihydroxy-2,4,7,11,16-pentaoxa-3λ^5, 12λ^5-diphosphatricyclo[13.3.0.0^6,^10]octadec-13-ene-3,12-dione], for which the EC50 on WT STING [1] was found to be 700 nM.
Regarding `Nc1ncnc2c1ncn2[C@@H]1O[C@@H]2COP(=O)(O)O[C@H]3C[C@H](n4cnc5c(N)ncnc54)O[C@@H]3/C=C/P(=O)(O)O[C@H]2[C@H]1F` [Compound 61, (1S,6R,8R,9R,10R,13E,15R,17R)-8,17-bis(6-amino-9H-purin-9-yl)-9-fluoro-3,12-dihydroxy-2,4,7,11,16-pentaoxa-3λ^5,12λ^5-diphosphatricyclo[13.3.0.0^6,10]octadec-13-ene-3,12-dione], the EC50 is 750 nM on WT STING [1] and over 200000 nM at WT STING [3].
Consider `CCC(C)(C)C(=O)OCOP1(=O)/C=C/[C@H]2O[C@@H](n3cnc4c(N)ncnc43)[C@H](F)[C@@H]2OP(=O)(OCOC(=O)C(C)(C)CC)OC[C@H]2O[C@@H](n3cnc4c(N)ncnc43)[C@H](F)[C@@H]2O1` (single isomer, unassigned) [Compound 84c], for which the EC50 in experiment [2] (setting [7]) amounted to 30 nM; in experiment [2] (setting [8]) it was 10 nM; on WT STING [3], 7 nM.
Consider `CC(C)(C)C(=O)OCOP1(=O)/C=C/[C@H]2O[C@@H](n3cnc4c(N)ncnc43)[C@H](F)[C@@H]2OP(=O)(OCOC(=O)C(C)(C)C)OC[C@H]2O[C@@H](n3cnc4c(N)ncnc43)[C@H](F)[C@@H]2O1` (single isomer, unassigned) [Compound 80c], for which the EC50 stood at 100 nM in experiment [2] (setting [4]), 180 nM in experiment [2] (setting [5]), 100 nM in experiment [2] (setting [6]) and 12 nM on WT STING [3].
As for `CC(C)(C)C(=O)OCOP1(=O)/C=C/[C@H]2O[C@@H](n3cnc4c(N)ncnc43)[C@H](F)[C@@H]2OP(=O)(OCOC(=O)C(C)(C)C)OC[C@H]2O[C@@H](n3cnc4c(N)ncnc43)[C@H](F)[C@@H]2O1` (single isomer, unassigned) [Compound 80a], the EC50 at WT STING [3] amounted to 84 nM.
In the case of `CCC(C)(C)C(=O)OCOP1(=O)/C=C/[C@H]2O[C@@H](n3cnc4c(N)ncnc43)[C@H](F)[C@@H]2OP(=O)(OCOC(=O)C(C)(C)CC)OC[C@H]2O[C@@H](n3cnc4c(N)ncnc43)[C@H](F)[C@@H]2O1` (single isomer, unassigned) [Compound 84b], the EC50 was determined as 80 nM in experiment [2] (setting [7]), 70 nM in experiment [2] (setting [8]), 60 nM in experiment [2] (setting [5]) and 10 nM on WT STING [3].
Consider `CCCCCCCCCCCC(=O)OCOP1(=O)/C=C/[C@H]2O[C@@H](n3cnc4c(N)ncnc43)[C@H](F)[C@@H]2OP(=O)(OCOC(=O)CCCCCCCCCCC)OC[C@H]2O[C@@H](n3cnc4c(N)ncnc43)[C@H](F)[C@@H]2O1` (single isomer, unassigned) [Compound 85b], for which, at WT STING [3], the EC50 came to 3 nM.
For `CC1(C(=O)OCOP2(=O)/C=C/[C@H]3O[C@@H](n4cnc5c(N)ncnc54)[C@H](F)[C@@H]3OP(=O)(OCOC(=O)C3(C)CCCCC3)OC[C@H]3O[C@@H](n4cnc5c(N)ncnc54)[C@H](F)[C@@H]3O2)CCCCC1` (single isomer, unassigned) [Compound 82c], the half-maximal effective concentration (EC50) stood at 100 nM in experiment [2] (setting [4]), 70 nM in experiment [2] (setting [5]), 60 nM in experiment [2] (setting [6]) and 15 nM at WT STING [3].
As for `CCCCCCCC(=O)OCOP1(=O)/C=C/[C@H]2O[C@@H](n3cnc4c(N)ncnc43)[C@H](F)[C@@H]2OP(=O)(OCOC(=O)CCCCCCC)OC[C@H]2O[C@@H](n3cnc4c(N)ncnc43)[C@H](F)[C@@H]2O1` (single isomer, unassigned) [Compound 83c], the EC50 at WT STING [3] was determined as 3 nM.
